Four compounds from US20030133905A1, “Composition for treating contact lenses in the eye” (priority 2001, published 2003) can be followed below.

The assay deals with T1, hen egg lysozyme (Gallus gallus, UniProt P00698).
T1 construct: 1 mg/ml of hen egg lysozyme; from tissue; host or cells: hen egg
The experiment in a line: Stabilization of lysozyme against heat denaturation, read out as lysis of M. luteus suspension (optical density at 450 nm). Type of assay: biochemical. As to conditions: saline with 20 mM buffering agent. The procedure:
Each solution included saline and 20 mM of buffering agent as identified in Table 1 below. To each test solution was added 1 mg/ml of hen egg lysozyme as well as a phosphate buffered saline (PBS) control. The test solutions were mixed slowly with a stir bar until the lysozyme was incorporated into the solutions. Five ml of each lysozyme-containing test solution was retained as the unheated control. The remaining 5 ml of each lysozyme-containing test solution were placed in glass lens vials, capped with silicone stoppers and incubated in a shaking water bath at 80° C., 40 revolutions per minute (rpm) for 1 hour. These heating conditions are sufficient to denature the lysozyme, absent a stabilization effect provided by the buffering agents. The vials were allowed to come to ambient temperature before testing. A 0.00025g/ml suspension of M. luteus was prepared from lyophilized cells in PBS. The suspension was continually mixed on a stir plate during the testing period to prevent the suspension from settling. For each set of test solutions, the following were tested (sample): a heated lysozyme-containing test solution (“lysozyme+heat”); an unheated lysozyme-containing test solution (“lysozyme/no heat”); and a test solution without lysozyme (“no lysozyme”). One ml of each sample was placed into a glass test tube to which 9 ml of M. luteus suspension was added and vortexed. A 1-ml sub-sample was placed into a disposable cuvette and evaluated on a UV-vis spectrophotometer at 450 nm. This procedure was performed for each sample at 0, 5 and 10 minutes. Each of the solutions was evaluated in triplicate. Each of the three optical density measurements from the triplicate samples was averaged. […] As shown by the test data set forth below in the Table 3, the lens drop solutions containing tromethamine were very effective at stabilizing the protein against denaturation.

Setting [1] is: lysozyme + heat (80° C., 1 hour), 1 mg/ml lysozyme.
Setting [2] is: lysozyme/no heat, 1 mg/ml lysozyme, M. luteus suspension.

T1 sequence (P00698 19-147): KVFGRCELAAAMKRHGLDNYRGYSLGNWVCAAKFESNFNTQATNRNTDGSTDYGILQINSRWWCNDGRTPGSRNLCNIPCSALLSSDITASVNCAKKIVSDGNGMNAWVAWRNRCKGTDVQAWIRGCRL

On to Borate, for which, under setting [1], the “optical density at 450 nm, Time 0 Min” value is 0.872; the “optical density at 450 nm, Time 5 Min” value is on record as 0.681; the “optical density at 450 nm, Time 10 Min” value was 0.390. Under setting [2], the “optical density at 450 nm, Time 0 Min” value was 0.619; the “optical density at 450 nm, Time 5 Min” value was found to be 0.053; the “optical density at 450 nm, Time 10 Min” value amounted to 0.034. Further, for the setting “no lysozyme”, the “optical density at 450 nm, Time 0 Min” value is 0.853; the “optical density at 450 nm, Time 5 Min” value came out at 0.853; the “optical density at 450 nm, Time 10 Min” value was determined as 0.854.
With Phosphate, under setting [1], the “optical density at 450 nm, Time 0 Min” value is given as 0.861; the “optical density at 450 nm, Time 5 Min” value is 0.858; the “optical density at 450 nm, Time 10 Min” value is 0.852. Under setting [2], the “optical density at 450 nm, Time 0 Min” value was found to be 0.634; the “optical density at 450 nm, Time 5 Min” value came out at 0.052; the “optical density at 450 nm, Time 10 Min” value is given as 0.029. Further, for the setting “no lysozyme”, the “optical density at 450 nm, Time 0 Min” value worked out at 0.856; the “optical density at 450 nm, Time 5 Min” value came to 0.852; the “optical density at 450 nm, Time 10 Min” value was 0.854.
With `NC(CO)(CO)CO` [Tris, 2-amino-2-hydroxymethyl-1,3-propanediol], the “optical density at 450 nm, Time 0 Min” value under setting [1] was determined as 0.810; the “optical density at 450 nm, Time 0 Min” value under setting [2] is recorded as 0.654; the “optical density at 450 nm, Time 0 Min” value (no lysozyme) is reported as 0.859. Further, the “optical density at 450 nm, Time 5 Min” value came out at 0.154 under setting [1], 0.048 under setting [2] and 0.854 (no lysozyme). For the same compound, the “optical density at 450 nm, Time 10 Min” value was determined as 0.117 under setting [1], 0.028 under setting [2] and 0.854 (no lysozyme).
Turning to `O=C(O)CC(O)(CC(=O)O)C(=O)O` [Citrate], under setting [1], the “optical density at 450 nm, Time 0 Min” value was determined as 0.877; the “optical density at 450 nm, Time 5 Min” value was found to be 0.851; the “optical density at 450 nm, Time 10 Min” value worked out at 0.785. Under setting [2], the “optical density at 450 nm, Time 0 Min” value stood at 0.654; the “optical density at 450 nm, Time 5 Min” value is 0.049; the “optical density at 450 nm, Time 10 Min” value worked out at 0.030. Under “no lysozyme”, the “optical density at 450 nm, Time 0 Min” value is 0.857; the “optical density at 450 nm, Time 5 Min” value was found to be 0.850; the “optical density at 450 nm, Time 10 Min” value was 0.850.
